Reference: patent publication US20070117836A1, “NAPTHALIMIDE DERIVATIVES, METHODS FOR THEIR PRODUCTION AND PHARMACEUTICAL COMPOSITIONS THEREFROM” (priority 2004, published 2007)
Where two headings read alike, the source gives them in different places.

Assays:
[1] = system: Six human cancer cell lines (Hs683, U-373MG, HCT-15, LoVo, A549, MCF-7); assay: MTT test of overall cell growth; format: cell-based; details: range of molar concentrations giving 50% inhibition of overall tumor cells growth, MTT, 72 hours incubation, six human cancer cell lines, read-out: IC50
Procedure: In order to characterize the in vitro activity of the compounds of the invention, MTT tests were performed to indirectly and rapidly measure, i.e. within 5 days, the effect of such a compound on the overall cell growth. The test measures the number of metabolically active living cells that are able to transform the yellow product 3-(4,5-dimethylthiazol-2-yl)-2,5-diphenyl tetrazolium bromide (herein referred as MTT) into the blue product formazan dye by mitochondrial reduction. The amount of formazan obtained at the end of the experiment was measured by means of a spectrophotometer and is directly proportional to the number of living cells. Determination of the optical density enables a quantitative measurement of the effect of the investigated compounds as compared to the control condition (untreated cells) and/or to other reference compounds (in casu mitonafide and amonafide).
Six human cancer cell lines described in table 1 were used in the MTT tests. These cell lines cover four histological cancer types, being glioma, colon, lung and breast cancers. Cells were allowed to grow in 96-well micro-wells with a flat bottom with an amount of 100 μl of cell suspension per well with 1,000 to 4,000 cells/well depending on the cell type used. Each cell line was seeded in an MEM 5% serum culture medium.
The detailed experimental procedure was as follows: after a 24-hour period of incubation at 37° C., the culture medium was replaced by 100 μl of fresh medium in which the compound to be tested was dissolved at the following molar concentrations: 10^−9 M, 5.10^−9 M, 10^−8 M, 5.10^−8 M, 10^−7 M, 5.10^−7 M, 10^−6 M, 5.10^−6 M and 10^−5 M. Each experiment was repeated 6 times.
After 72 hours of incubation at 37° C. with (experimental conditions) or without (control condition) the compound to be tested, the medium was replaced by 100 μl MTT dissolved in RPMI at a concentration of 1 mg/ml. The micro-wells were subsequently incubated during 3 hours at 37° C. and centrifuged at 400 g during 10 minutes. MTT was removed and formazan crystals formed were dissolved in 100 μl DMSO. The micro-wells were shaken for 5 minutes and read on a spectrophotometer at wavelengths of 570 nm (maximum formazan absorbance) and 630 nm (background noise).
For each experimental condition, the mean optical density was calculated, as well as the percentage of remaining living cells in comparison with the control.

[2] = system: L1210 (Mouse Leukemia); assay: L1210 mouse leukemia model, survival; format: in vivo, mice; details: median day of death treated/control; for response vs control in vivo at 10 mg/kg / response vs control in vivo at 20 mg/kg / response vs control in vivo at 40 mg/kg / response vs control in vivo at 80 mg/kg / response vs control in vivo at 2.5 mg/kg / response vs control in vivo at 5 mg/kg: Mus musculus, L1210, ip; for response vs control in vivo at 2.5 mg/kg: read-out: T/C (%), dose 2.5 mg/kg intraperitoneally at days 1, 2, 3, 4, 7, 8, 9 and 10; for response vs control in vivo at 5 mg/kg: read-out: T/C (%), dose 5 mg/kg intraperitoneally at days 1, 2, 3, 4, 7, 8, 9 and 10
Procedure: L1210 is a syngeneic model (Mouse Leukemia) which may be used to define an optimal treatment regimen (doses and schedule) for subsequent testing of drugs in more expensive and time-consuming orthotopic human xenograft models. The model was performed with 5 mice per group, said mice being grafted at day 0 and the tested compounds being injected intraperitoneally (at the dose indicated in table 4) at days 1, 2, 3, 4, 7, 8, 9 and 10 respectively. The data shown in table 4 are T/C values which were calculated by dividing the median day of death in a treated group T by the median day of death in the control group C. T/C values of 130% or more (i.e. a prolongation of mice survival of 30% or more) indicate a significant prolongation of survival.
The experimental procedure of example 25 was repeated with compounds of examples 17, 19, 33 and 35, and the data obtained from this experiment are reported in table 7.

[3] = in vivo; details: mouse
Procedure: (§1) The maximum tolerated dose (herein after MTD) is defined as the maximum amount of a given drug which can be administered acutely (i.e. in one intraperitoneal, intravenous, subcutaneous or oral single dose) to healthy animals, i.e. animals not grafted with tumors. The survival times and weights of the animals are recorded up to 14 days post injection. Five different doses of each drug are used for the determination of the MTD index. […] Each experimental group comprised 3 mice for the determination of the MTD index (expressed in mg/kg).

[4] = system: healthy animals; details: single dose to healthy mice, 3 mice per group, survival and weights recorded up to 14 days post injection
Procedure: as §1

[5] = system: leukemia models in mice; details: background statement; cited from earlier work
[6] = system: human tumour xenografts in mice with colon, lung and mammary cancers; details: background statement; cited from earlier work
[7] = system: primary human solid tumours; details: Ajani et al. Invest New Drugs (1988) 6:79-83; cited from earlier work
[8] = system: patients; details: patients receiving five daily doses; leading to some deaths; cited from earlier work
[9] = read-out: T/C (%), dose 10 mg/kg intraperitoneally at days 1, 2, 3, 4, 7, 8, 9 and 10
[10] = read-out: T/C (%), dose 20 mg/kg intraperitoneally at days 1, 2, 3, 4, 7, 8, 9 and 10
[11] = dose 10 mg/kg intraperitoneally at days 1, 2, 3, 4, 7, 8, 9 and 10, read-out: T/C (%)
[12] = dose 20 mg/kg intraperitoneally at days 1, 2, 3, 4, 7, 8, 9 and 10, read-out: T/C (%)
[13] = dose 40 mg/kg intraperitoneally at days 1, 2, 3, 4, 7, 8, 9 and 10, read-out: T/C (%)
[14] = dose 80 mg/kg intraperitoneally at days 1, 2, 3, 4, 7, 8, 9 and 10, read-out: T/C (%)
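For MTD in this document: highest single acute dose (intraperitoneal, intravenous, subcutaneous or oral) tolerated by tumor-free mice, assessed across five dose levels per drug.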

Row | Structure (SMILES) | MTD at 14 days [3] | IC50 ([1]; Homo sapiens, 72 h) | response vs control in vivo at 10 mg/kg [2, 11] | response vs control in vivo at 20 mg/kg [2, 12] | response vs control in vivo at 40 mg/kg [2, 13] | response vs control in vivo at 80 mg/kg [2, 14] | MTD at 14 days ([3]; intraperitoneal) | other results
1 | CN(C)CCN1C(=O)c2cccc3cc(NC(=O)NC(=O)C(Cl)(Cl)Cl)cc(c23)C1=O [Example 2, 2,2,2-trichloro-N-[({2-[2-(dimethylamino)ethyl]-1,3-dioxo-2,3-dihydro-1H-benzo[de]isoquinolin-5-yl}amino)carbonyl]acetamide] | > 160 mg/kg | – | – | – | – | – | – | IC50 [1]: 0.5 to 1 µM; response vs control in vivo at 10 mg/kg [2, 9]: 128%; response vs control in vivo at 20 mg/kg [2, 10]: 156%; response vs control in vivo at 40 mg/kg ([2]; read-out: T/C (%), dose 40 mg/kg intraperitoneally at days 1, 2, 3, 4, 7, 8, 9 and 10): 177%; response vs control in vivo at 80 mg/kg ([2]; read-out: T/C (%), dose 80 mg/kg intraperitoneally at days 1, 2, 3, 4, 7, 8, 9 and 10): 194%
2 | CN(C)CCN1C(=O)c2cccc3cc(NC(=O)Nc4ccc(C#N)cc4)cc(c23)C1=O [Example 7, N-[2-[2-(dimethylamino)ethyl]-1,3-dioxo-2,3-dihydro-1H-benzo[de]isoquinolin-5-yl]-N′-(4-cyanophenyl)urea] | – | 1 to 5 µM | 140% | 147% | 147% | 213% | > 160 mg/kg | –
3 | CN(C)CCN1C(=O)c2cccc3cc(NC(=O)Nc4ccc5c(c4)OCO5)cc(c23)C1=O [Example 9] | – | 5 to 10 µM | 113% | 140% | 160% | 187% | > 160 mg/kg | –
4 | CN(C)CCN1C(=O)c2cccc3cc(NC(=O)Nc4ccc(OC(F)(F)F)cc4)cc(c23)C1=O [Example 10] | – | 1 to 5 µM | 117% | 156% | 139% | 194% | > 160 mg/kg | –
5 | CN(C)CCN1C(=O)c2cccc3cc(N=Cc4ccc5c(c4)OCO5)cc(c23)C1=O [Example 17, 5-{[(1Z)-1,3-benzodioxol-5-ylmethylene]amino}-N-{2-[2-(dimethylamino)ethyl]-1H-benzo[de]isoquinoline-1,3(2H)-dione] | – | > 10 µM | 120% | 233% | 207% | 280% | 80 mg/kg | –
6 | CN(C)CCN1C(=O)c2cccc3cc(/N=C\c4cc(O)ccc4O)cc(c23)C1=O [Example 19, 2-[2-(dimethylamino)ethyl]-5-{[(1Z)-(2,5-dihydroxyphenyl)methylene]amino}-1H-benzo[de]isoquinoline-1,3(2H)-dione] | – | 10 µM | 150% | 144% | 231% | 275% | 80 mg/kg | –
7 | CN(C)CCN1C(=O)c2cccc3cc(NC(=O)NC(=O)C(Cl)(Cl)Cl)cc(c23)C1=O.Cl [Example 33, 2,2,2-trichloro-N-[({2-[2-(dimethylamino)ethyl]-1,3-dioxo-2,3-dihydro-1H-benzo[de]isoquinolin-5-yl}amino)carbonyl]acetamide hydrochloride] | 120 mg/kg | – | – | – | – | – | – | IC50 ([1]; hydrochloride): 5 to 10 µM; T/C (%) ([2]; dose 10 mg/kg intraperitoneally at days 1, 2, 3, 4, 7, 8, 9 and 10): 148%; T/C (%) ([2]; dose 20 mg/kg intraperitoneally at days 1, 2, 3, 4, 7, 8, 9 and 10): 138%; T/C (%) ([2]; dose 40 mg/kg intraperitoneally at days 1, 2, 3, 4, 7, 8, 9 and 10): 186%; T/C (%) ([2]; dose 80 mg/kg intraperitoneally at days 1, 2, 3, 4, 7, 8, 9 and 10): 200%
8 | CN(C)CCN1C(=O)c2cccc3cc(/N=C\c4cc(O)ccc4O)cc(c23)C1=O.Cl [Example 34] | – | – | – | – | – | – | – | MTD [4]: 40 mg/kg
9 | CN(C)CCN1C(=O)c2cccc3cc(N=Cc4cc5c(cc4[N+](=O)[O-])OCO5)cc(c23)C1=O [Example 35, 5-{[(1Z)-benzo([1,3]dioxol-6-nitro)-5-yl-methylene]amino}-N-(2-[2-dimethylamino)ethyl]-1H-benzo[de]isoquinolin-1,3(2H)-dione] | 80 mg/kg | > 10 µM | 213% | 193% | 280% | > 300% | – | –
10 | CN(C)CCN1C(=O)c2cccc3cc(NCc4ccc5c(c4)OCCO5)cc(c23)C1=O [Example 42] | > 80 mg/kg | 5 to 10 µM | – | – | – | – | – | –
11 | CN(C)CCN1C(=O)c2cccc3cc(N)cc(c23)C1=O [amonafide, N-(2-dimethylaminoethyl)-3-amino-1,8-naphthalimide, reference compound] | 40 mg/kg | 1 to 5 µM | – | – | – | – | – | response vs control in vivo at 2.5 mg/kg [2]: 120%; response vs control in vivo at 5 mg/kg [2]: 140%; response vs control in vivo at 10 mg/kg [2, 9]: 120%; response vs control in vivo at 20 mg/kg [2, 10]: 120%; activity in leukemia models in mice [5]: only moderate activity; activity in human tumour xenografts in mice [6]: no activity; activity in primary human solid tumours in vitro [7]: poor activity; myelotoxicity in patients [8]: substantial myelotoxicity
12 | CN(C)CCN1C(=O)c2cccc3cc([N+](=O)[O-])cc(c23)C1=O [mitonafide, reference compound] | 40 mg/kg | 1 to 5 µM | – | – | – | – | – | response vs control in vivo at 2.5 mg/kg [2]: 107%; response vs control in vivo at 5 mg/kg [2]: 140%; response vs control in vivo at 10 mg/kg [2, 9]: 120%; response vs control in vivo at 20 mg/kg [2, 10]: 193%
